Laboratory results from patent US9738656B2, “Pyranodipyridine compound” (Eisai R&D Management Co., Ltd., priority 2015, dated 2017).
Read-outs that look alike come from different tables or passages of the source.

Assays:
[1] = tested on: AMPA receptor; experiment: AMPA-induced intraneuronal calcium entry-suppressing action (primary culture of embryonic rat cerebral cortex neurons, Fura 2-AM); type: cell-based; conditions: AMPA stimulation, intracellular calcium increase, read-out: IC50 for AMPA inhibition
Source text: The present inventors conducted the following tests, in order to confirm the effects of the compounds of the present invention. With regard to the AMPA receptor inhibitory action of the compounds, AMPA-induced intraneuronal calcium entry-suppressing action was examined using a primary culture system of embryonic rat cerebral cortex neurons. With regard to the anticonvulsant action of the compounds, 6 Hz (44 mA) stimulation-induced convulsions known as a treatment-resistant convulsion model were used. AMPA inhibitor-induced central nervous system depressant action such as loss of coordination was evaluated using a rotarod performance test.
AMPA-Induced Intraneuronal Calcium Entry-Suppressing Action
<Culture conditions> Whole fetuses were removed from the uteri of Wistar rats at embryonic day 18 (Charles River Japan) anesthetized with isoflurane. Whole brains were removed from the whole fetuses, and the cerebral cortex was separated in Leibovitz's L-15 medium or Hanks balanced salt solution containing 20% fetal bovine serum. The resulting material was treated with trypsin/DNase solution at 37° C. for 45 to 60 minutes. After the serum was added to stop the trypsin reaction, the resulting material was centrifuged at 1200 to 1500 rpm for 3 to 5 minutes. After the supernatant was removed, Neurobasal medium (containing 2% B-27 supplement and the like; hereinafter “Neurobasal medium”) was added, and the cells were uniformly dispersed by gently pipetting. The cell suspension was slightly stirred, and then filtered through a nylon mesh filter. Viable cells were counted using a hemocytometer, and diluted with Neurobasal medium to 8 to 10×10^5 cells/mL. The cells were seeded into 96 well plates at 100 μL per well and cultured in a CO2 incubator (5% CO2, 37° C.). The medium was replaced after 24 hours, and neurons cultured for 7 to 21 days were used.
On the day of the assay, the medium was removed and replaced with a calcium measurement solution containing 5 to 10 μmol/L of Fura 2-AM (140 mmol/L sodium chloride, 5 mmol/L potassium chloride, 2 mmol/L magnesium chloride, 3 mmol/L calcium chloride, 24 mmol/L D(+)-glucose, 10 mmol/L HEPES, 1 μmol/L MK-801, pH 7.4), and the cells were treated in a CO2 incubator (5% CO2, 37° C.) for 1 to 2 hours. The calcium measurement solution containing the Fura-2 AM solution was subsequently removed, and the neurons in each well were washed twice with the calcium measurement solution for each well, and then 50 μL of the calcium measurement solution was added to each well. Subsequently, 50 μL of a test compound or medium prepared at a concentration 3-fold higher than the final concentration was added, and the cells were pre-treated for about 15 minutes. The plates were subsequently placed on the Fluorescence Drug Screening System 6000 (Hamamatsu Photonics K.K.). The cells were stimulated by adding to each well 50 μL of an AMPA stimulating solution prepared to 3.3 μmol/L with the calcium measurement solution. Changes in calcium concentration were measured as the changes in fluorescence intensity at excitation wavelengths of 340 nm and 380 nm (measurement wavelength: 540 nm). The rate of change of the intracellular calcium concentration was calculated according to the following equation: Rate of increase of the intracellular calcium concentration (% control)=(Tpost−Tpre)/(Cpost−Cpre)×100
wherein Tpost: the proportion of fluorescence of sample wells after stimulation; Tpro: the proportion of fluorescence of sample wells before stimulation; Cpost: the proportion of fluorescence of control wells after stimulation; and Cpre: the proportion of fluorescence of control wells before stimulation.
The IC50 value of the test compound for AMPA inhibition was determined from the rates of increase of the intracellular calcium concentration at various concentrations.

[2] = tested on: male ddY mice; experiment: Rotarod performance test-1; type: in vivo; conditions: oral, 25 minutes after administration, dose at which time of fall is reduced to 50% of medium control
Experimental: (§1) With regard to the AMPA receptor inhibitory action of the compounds, AMPA-induced intraneuronal calcium entry-suppressing action was examined using a primary culture system of embryonic rat cerebral cortex neurons. […] AMPA inhibitor-induced central nervous system depressant action such as loss of coordination was evaluated using a rotarod performance test.
Rotarod Performance Test-1
(§2) A rotarod (MK-660C from Muromachi Kikai Co., Ltd.) was used for the measurement. The rod (bar) was controlled to be gradually accelerated from its stationary state to a speed of 40 rotations/minute after 180 seconds. As the animals, 5 or 6-week-old male ddY mice (Japan SLC, Inc.) were used. On the day on which the test was performed, the mice were trained under the above-described measurement conditions, and mice that were able to ride on the rod for 1 minute or longer with good reproducibility were selected and subjected to the test.
Each of the compounds was dissolved in a medium (a solution prepared by adding DMSO to a 0.5% methylcellulose solution to a final concentration of 10%. As required, 0.5 to 5% of 1 mol/L hydrochloric acid and 5% Cremophor™ were added), and then orally administered to the mice in optimum four doses between 0.5 to 10 mg/kg. As the control, only the medium was orally administered. After a lapse of 25 minutes from the oral administration of each compound, the mice were subjected to the rotarod performance test. Five to twenty-five mice were used for each compound group.

[3] = tested on: male ddY mice; experiment: Murine 6 Hz convulsion models (6 Hz, 44 mA corneal stimulation); type: in vivo; conditions: for ED50: Mus musculus, 25 min; for Therapeutic Index: TD50/ED50 (rotarod test-1 / 6 Hz convulsion model)
Experimental: as §1
Immediately after the rotarod performance test-1 was completed, the cornea was stimulated by passing an electrical current (6 Hz, 44 mA, 0.2-millisecond pulse, for 3 seconds) from a copper electrode moistened with physiological saline, and the presence or absence of the development of a seizure was observed. The seizure was determined by the development of akinesia, jaw and forelimb clonus, whisker tremors, and Straub tail.
Further, for the purpose of evaluating the safety margin of each of the compounds of the present invention, the therapeutic index (TD50/ED50) was calculated by comparing the seizure inhibitory action (ED50) in the 6 Hz convulsion models and the neurotoxic action (TD50) in the rotarod performance test-1.

[4] = tested on: male ddY mice; experiment: Rotarod performance test-2; type: in vivo; conditions: for Time of Fall: mice, oral at the ED50 dose of the 6 Hz model, 25 minutes after administration; for Ratio Relative to the Control Compound: time of fall relative to control compound
Experimental: Rotarod Performance Test-2
as §2
As the control, only the medium was orally administered. After a lapse of 25 minutes from the oral administration of each compound, the mice were subjected to the rotarod performance test. Five or six mice were used for each compound group. For each compound, the time until the mice fell from the rotarod was measured.

[5] = mice, 6 Hz 44 mA stimulation-induced seizure, oral, after rotarod test-1 (25 minutes after administration), read-out: ED50

Compound	IC50 [1] [nM]	TD50 [2]	ED50 ([3]; po) [mg/kg]	Therapeutic Index ([3]; mice)	Time of Fall ([4]; Table 3) [s]	Ratio Relative to the Control Compound ([4]; Table 3)	Time of Fall ([4]; Table 4) [s]	Ratio Relative to the Control Compound ([4]; Table 4)	ED50 [3, 5] [mg/kg]
N#Cc1ncccc1-c1cc2c(n(-c3ccccc3F)c1=O)COc1cccnc1-2 [Example 12, 3-(7-(2-fluorophenyl)-8-oxo-7,8-dihydro-6H-pyrano[3,2-b:5,4-b′]dipyridin-9-yl)picolinonitrile]	33	3.06 mg/kg, p.o.	1.66	1.84	80.5	6.6			
N#Cc1c(F)cccc1-c1cc2c(n(-c3cncc(F)c3)c1=O)COc1cccnc1-2 [Example 15, 2-fluoro-6-(7-(5-fluoropyridin-3-yl)-8-oxo-7,8-dihydro-6H-pyrano[3,2-b:5,4-b′]dipyridin-9-yl)benzonitrile]	8.2	2.67 mg/kg, p.o.	1.41	1.89			100.0	7.0	
N#Cc1c(F)ccc(F)c1-c1cc2c(n(-c3cccnc3)c1=O)COc1cccnc1-2 [Example 19, 3,6-difluoro-2-(8-oxo-7-(pyridin-3-yl)-7,8-dihydro-6H-pyrano[3,2-b:5,4-b′]dipyridin-9-yl)benzonitrile]	23.4	3.25 mg/kg, p.o.	2	1.63			121.7	8.5	
Cc1c(F)cccc1-c1cc2c(n(-c3cccnc3)c1=O)COc1cccnc1-2 [Example 22, 9-(3-fluoro-2-methylphenyl)-7-(pyridin-3-yl)-6H-pyrano[3,2-b:5,4-b′]dipyridin-8(7H)-one]	53.3	6.19 mg/kg, p.o.		1.91			102.8	7.2	3.23
N#Cc1c(F)cccc1-c1cc2c(n(-c3cncc(Cl)c3)c1=O)COc1cccnc1-2 [Example 20, 2-(7-(5-chloropyridin-3-yl)-8-oxo-7,8-dihydro-6H-pyrano[3,2-b:5,4-b′]dipyridin-9-yl)-6-fluorobenzonitrile]	8.26	4.74 mg/kg, p.o.	2.47	1.91			71.3	5.0	
N#Cc1nccnc1-c1cc2c(n(-c3ccsc3)c1=O)COc1cccnc1-2 [Example 8, 3-(8-oxo-7-(thiophen-3-yl)-7,8-dihydro-6H-pyrano[3,2-b:5,4-b′]dipyridin-9-yl)pyrazine-2-carbonitrile]	70.1	>8 mg/kg, p.o.		>1.65	65.8	5.4			4.85
O=c1c(-c2c(F)c(F)cc(F)c2F)cc2c(n1-c1cccnc1)COc1cccnc1-2 [Example 6, 7-(pyridin-3-yl)-9-(2,3,5,6-tetrafluorophenyl)-6H-pyrano[3,2-b:5,4-b′]dipyridin-8(7H)-one]	34.6	4.44 mg/kg, p.o.	2.86	1.55	68.0	5.6			
O=c1c(-c2ccccc2F)cc2c(n1-c1ccccc1)COc1cccnc1-2 [Example 9, 9-(2-fluorophenyl)-7-phenyl-6H-pyrano[3,2-b:5,4-b′]dipyridin-8(7H)-one]	50.9	9.55 mg/kg, p.o.		2.83	109.7	9.0			3.38
N#Cc1c(F)cccc1-c1cc2c(n(-c3cncnc3)c1=O)COc1cccnc1-2 [Example 18, 2-fluoro-6-(8-oxo-7-(pyrimidin-5-yl)-7,8-dihydro-6H-pyrano[3,2-b:5,4-b′]dipyridin-9-yl)benzonitrile]	29	4.03 mg/kg, p.o.	2	2.02			102.2	7.1	
O=c1c(-c2ccccc2Cl)cc2c(n1-c1cccnc1)COc1cccnc1-2 [Example 1, 9-(2-chlorophenyl)-7-(pyridin-3-yl)-6H-pyrano[3,2-b:5,4-b′]dipyridin-8(7H)-one]	33.5	3.09 mg/kg, p.o.	2.08	1.49	56.3	4.6			
N#Cc1c(F)cccc1-c1cc2c(n(-c3cccnc3)c1=O)COc1cc(F)cnc1-2 [Example 14, 2-fluoro-6-(3-fluoro-8-oxo-7-(pyridin-3-yl)-7,8-dihydro-6H-pyrano[3,2-b:5,4-b′]dipyridin-9-yl)benzonitrile]	19.4	4.76 mg/kg, p.o.	2.09	2.27			139.2	9.7	
